Measurements published in ChEMBL document CHEMBL6120988, “Mitochondria-targeting artesunate-rhein conjugates: Linker-modulated cell-permeability, heme-affinity and anticancer activity” (Eur J Med Chem, 2025).
Calls of active or inactive are those of the source. No cut-off for these calls is given here.

Experiments:
[1] = Toxicity against female BALB/c mouse allografted with mouse 4T1 cells assessed as mean corpuscular hemoglobin concentration at 100 mg/kg, po administrated every day for 15 times and measured after 22 days; assay type: organism-based; conditions: in vivo, 528 h, time 22 day
[2] = tested on: 4T1; assay: Antitumor activity against mouse 4T1 cells allografted in female BALB/c mouse assessed as increase in infiltration of CD8+IFN-gamma+ lymphocytes in tumors at 10 mg/kg, iv administrated every day for 15 times and measured after 22 days by flow cytometry (reference value: 5.58%); assay type: functional; conditions: time 22 day
[3] = tested on: 4T1; assay: Induction of immunogenic cell death in mouse 4T1 cells assessed as increase in CRT exposure on cell surface by measuring increase in red fluorescence by CLSM analysis (reference value: 2.55%); assay type: functional
[4] = AUC(0 to t) in mouse iv dosed mouse; assay type: ADME, organism-based; conditions: in vivo, dose 10 mg/kg, time 3 day
[5] = Toxicity against female BALB/c mouse allografted with mouse 4T1 cells assessed as hemoglobin at 100 mg/kg, po administrated every day for 15 times and measured after 22 days; assay type: organism-based; conditions: in vivo, 528 h, time 22 day
[6] = tested on: 4T1; assay: Induction of immunogenic cell death in mouse 4T1 cells allografted in female BALB/c mouse assessed as increase in CD80+ CD86+CD11c+ cells DC maturation at 100 mg/kg, po administrated every day for 15 times and measured after 22 days by flow cytometry (reference value: 7.20 %); assay type: functional; conditions: time 22 day
[7] = tested on: 4T1; assay: Antitumor activity against mouse 4T1 cells allografted in female BALB/c mouse assessed as increase in apoptotic cells at 100 mg/kg, po administrated every day for 15 times and measured after 22 days by TUNEL staining based assay; assay type: functional, organism-based; conditions: time 22.0 day
[8] = Toxicity in female BALB/c mouse allografted with mouse 4T1 cells assessed as survival rate at 10 mg/kg, iv administrated every 3 day for 5 times and measured after 22 days relative to control; assay type: organism-based; conditions: in vivo, 528 h, time 22 day
[9] = Toxicity against female BALB/c mouse allografted with mouse 4T1 cells assessed as effect on white blood cells at 10 mg/kg, iv administrated every 3 days for 5 times and measured after 22 days; assay type: organism-based; conditions: in vivo, 528 h, time 22 day
[10] = Toxicity against female BALB/c mouse allografted with mouse 4T1 cells assessed as mean corpuscular volume at 10 mg/kg, iv administrated every 3 days for 5 times and measured after 22 days; assay type: organism-based; conditions: in vivo, 528 h, time 22 day
[11] = Drug localization in mitochondria of mouse 4T1 cells assessed as fluorescence intensity measured using pearson co-efficient incubated for 10 hrs by mito-tracker red fluorescent dye based confocal laser scanning microscopic analysis; assay type: ADME; conditions: 4t1, 10 h
[12] = tested on: 4T1; assay: Antitumor activity against mouse 4T1 cells allografted in female BALB/c mouse assessed as disappearance of cancer cells at 100 mg/kg, po administrated every day for 15 times and measured after 22 days by H and E staining based analysis; assay type: functional, organism-based; conditions: time 22.0 day
[13] = Toxicity against female BALB/c mouse allografted with mouse 4T1 cells assessed as effect on white blood cells at 100 mg/kg, po administrated every day for 15 times and measured after 22 days; assay type: organism-based; conditions: in vivo, 528 h, time 22 day
[14] = tested on: 4T1; assay: Induction of apoptosis in mouse 4T1 cells assessed as necrotic cells by Annexin V-FITC and PI staining based flow cytometry analysis (reference value: 0.085 %); assay type: functional
[15] = tested on: 4T1; assay: Antitumor activity against mouse 4T1 cells allografted in female BALB/c mouse assessed as reduction in tumor tissue weight at 10 mg/kg, iv administrated every 3 day for 5 times and measured after for 22 days; assay type: functional, organism-based; conditions: time 22.0 day
[16] = tested on: 4T1; assay: Antitumor activity against mouse 4T1 cells allografted in female BALB/c mouse assessed as tumor inhibition rate at 10 mg/kg, iv administrated every 3 day for 5 times and measured after 22 days relative to control; assay type: functional; set-up: scale not given: the % may be the effect or the level left; conditions: time 22 day
[17] = tested on: 4T1; assay: Potency index, ratio of paclitaxel IC50 to test compound IC50 for cytotoxicity against mouse 4T1 cells assessed as cell viability by MTT assay; assay type: functional
[18] = tested on: HeLa; assay: Cytotoxicity against human Hela cells assessed as cell viability by MTT assay; assay type: functional, cell-based
[19] = tested on: 4T1; assay: Induction of immunogenic cell death in mouse 4T1 cells assessed as increase in ATP release by measuring increase in red fluorescence by CLSM analysis relative to R/A group; assay type: functional, cell-based
[20] = Tmax in mouse at 100 mg/kg, po; assay type: ADME, organism-based; conditions: in vivo
[21] = tested on: 4T1; assay: Induction of mitochondrial dysfunction in mouse 4T1 cells assessed as oxygen consumption rate; assay type: functional, cell-based
[22] = Toxicity against female BALB/c mouse allografted with mouse 4T1 cells assessed as effect on red blood cells at 100 mg/kg, po administrated every day for 15 times and measured after 22 days; assay type: organism-based; conditions: in vivo, 528 h, time 22 day
[23] = tested on: 4T1; assay: Antitumor activity against mouse 4T1 cells allografted in female BALB/c mouse assessed as increase in nuclear shrinkage at 10 mg/kg, iv administrated every 3 day for 5 times and measured after 22 days; assay type: functional, organism-based; conditions: time 22.0 day
[24] = tested on: 4T1; assay: Immunostimulatory activity in mouse 4T1 cells implanted in female BALB/c mouse assessed as increase in immunostimulatory CD86+ expression; assay type: functional, cell-based
[25] = tested on: 4T1; assay: Antitumor activity against mouse 4T1 cells allografted in female BALB/c mouse assessed as increase in nuclear shrinkage at 100 mg/kg, po administrated every day for 15 times and measured for 22 days; assay type: functional, organism-based; conditions: time 22.0 day
[26] = tested on: 4T1; assay: Antitumor activity against mouse 4T1 cells allografted in female BALB/c mouse assessed as inhibition of cell proliferation at 100 mg/kg, po administrated every day for 15 times and measured after 22 days by PCNA assay; assay type: functional, organism-based; conditions: time 22.0 day
[27] = tested on: 4T1; assay: Antitumor activity against mouse 4T1 cells allografted in female BALB/c mouse assessed as increase in infiltration of CD8+IFN-gamma+ lymphocytes in tumors at 100 mg/kg, po administrated every day for 15 times and measured after 22 days by flow cytometry (reference value: 5.99%); assay type: functional; conditions: time 22 day
[28] = tested on: 4T1; assay: Induction of mitochondrial dysfunction in mouse 4T1 cells assessed as basal respiration; assay type: functional, cell-based
[29] = tested on: 4T1; assay: Induction of immunogenic cell death in mouse 4T1 cells allografted in female BALB/c mouse assessed as increase in CD80+ CD86+CD11c+ cells DC maturation at 10 mg/kg, iv administrated every 3 days for 5 times and measured after 22 days by flow cytometry (reference value: 7.77 %); assay type: functional; conditions: time 22 day
[30] = tested on: 4T1; assay: Induction of repolarization of M2 macrophages into M1 macrophages in mouse 4T1 cells assessed as ratio of M2 to M1 macrophages; assay type: functional, cell-based
[31] = tested on: 4T1; assay: Antitumor activity against mouse 4T1 cells allografted in female BALB/c mouse assessed as reduction in tumor tissue volume at 100 mg/kg, po administrated every day for 15 times and measured after 22 days relative to control; assay type: functional, organism-based; conditions: time 22.0 day
[32] = AUC(0 to t) in mouse at 100 mg/kg, po; assay type: ADME, organism-based; conditions: in vivo
[33] = tested on: 4T1; assay: Induction of apoptosis in mouse 4T1 cells assessed as viable cells by Annexin V-FITC and PI staining based flow cytometry analysis (reference value: 96.2 %); assay type: functional
[34] = Toxicity in female BALB/c mouse allografted with mouse 4T1 cells assessed as survival rate at 100 mg/kg, po administrated every day for 15 times and measured after 22 days relative to control; assay type: organism-based; conditions: in vivo, 528 h, time 22 day
[35] = Half life in mouse at 100 mg/kg, po; assay type: ADME, organism-based; conditions: in vivo
[36] = tested on: 4T1; assay: Antitumor activity against mouse 4T1 cells allografted in female BALB/c mouse assessed as increase in infiltration of CD3+ CD8+ T lymphocytes in tumors at 100 mg/kg, po administrated every day for 15 times and measured after 22 days by flow cytometry (reference value: 6.91 %); assay type: functional; conditions: time 22 day

In the case of `C[C@H]1[C@H](OC(=O)CCC(=O)OCCCCOC(=O)c2cc(O)c3c(c2)C(=O)c2cccc(O)c2C3=O)O[C@@H]2O[C@@]3(C)CC[C@H]4[C@H](C)CC[C@@H]1[C@@]24OO3`, the Activity [1] is reported as “Non-toxic”, the Activity [2] is reported as 12.3% and the Activity [3] is reported as “Active”. For the same molecule, the Activity ([3]; record 2) was 32.82%, the AUC(0-t) at 72 h [4] was 11500 ng·h/mL and the Activity [5] was “Non-toxic”. For the same molecule, the Activity [6] was 17.4%, the Activity [7] was “Active” and the Survival [8] was “<= 39 day”. The Activity [9] was “Non-toxic”, the Activity [10] was “Non-toxic” and the Flu intensity [11] was 0.96. For the same molecule, the Activity [12] was “Active”, the Activity [13] was “Non-toxic” and the Activity [14] was 0.27%. For the same molecule, the Activity [15] was “Active; Tumor Lighter Weight Than Pbs Treatment”, the Activity [16] was 79.15% and the “Ratio IC50” value [17] was 3. For the same molecule, the IC50 [18] was 2430 nM, the Activity [19] was “Active” and the Tmax [20] was 3 h. The Activity [21] was “Active”, the Activity [22] was “Non-toxic” and the Activity [23] was “Active”. The Activity [24] was “Active”, the Activity [25] was “Active” and the Activity [26] was “Active”. For the same molecule, the Activity [27] was 13.3%, the Activity [28] was “Active” and the Activity [29] was 20%. For the same molecule, the Activity [30] was “Active; Compound Triggers Repolarization By Reversing The Ratio Of M2 To M1 Macrophages”, the Activity [31] was “Active; Tumor Lighter Weight Than Pbs Treatment” and the AUC(0-t) [32] was 18200 ng·h/mL. For the same molecule, the Activity [33] was 35.5%, the Survival [34] was “<= 39 day” and the half-life [35] was 5.15 h. For the same molecule, the Activity [36] was 15.4%.
